For data set [1], the target named is T1, Aromatase (Homo sapiens, UniProt P11511).
T1 sequence (P11511 whole entry): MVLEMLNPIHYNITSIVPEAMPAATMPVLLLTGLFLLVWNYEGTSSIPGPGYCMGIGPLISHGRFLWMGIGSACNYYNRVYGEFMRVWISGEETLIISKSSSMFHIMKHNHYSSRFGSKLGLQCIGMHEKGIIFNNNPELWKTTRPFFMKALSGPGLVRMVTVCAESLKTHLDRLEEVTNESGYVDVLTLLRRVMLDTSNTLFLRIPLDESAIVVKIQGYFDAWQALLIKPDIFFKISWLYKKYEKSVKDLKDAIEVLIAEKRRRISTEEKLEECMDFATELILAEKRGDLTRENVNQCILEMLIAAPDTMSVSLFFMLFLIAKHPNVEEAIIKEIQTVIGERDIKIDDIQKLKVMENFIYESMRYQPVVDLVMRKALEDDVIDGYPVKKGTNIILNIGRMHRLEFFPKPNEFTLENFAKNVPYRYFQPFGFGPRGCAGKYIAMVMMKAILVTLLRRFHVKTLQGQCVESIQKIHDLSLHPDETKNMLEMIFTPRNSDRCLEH

The target of data set [2] is T1, Aromatase. This is another data set of the same source.
The target of data set [3] is T1, Aromatase. The source holds these as a separate data set.
The target in data set [4] is T1, Aromatase. Kind of data set: Binding affinity to aromatase (unknown origin) assessed as change in gibbs free energy.

Several values for one entry are separate records, joined by “and”; a condition that tells them apart may be missing. Equal values may be shown once.

The term IC50 denotes the concentration needed to halve the response being measured. Higher therefore signals lower potency. `C[C@]12C=CC(=O)C=C1C[C@@H](Cc1ccccc1)[C@@H]1[C@@H]2CC[C@]2(C)C(=O)CC[C@@H]12`: the IC50 in data set [1] is 0.232 µM; in data set [2], 0.0192 µM. For `C[C@]12CCC(=O)C=C1C=C(CCc1ccccc1)[C@@H]1[C@@H]2CC[C@]2(C)C(=O)CC[C@@H]12`, the IC50 in data set [1] is 0.661 µM; in data set [2] it was 0.174 µM.

On to `C[C@]12C=CC(=O)C=C1C[C@@H](CCCc1ccc([N+](=O)[O-])cc1)[C@@H]1[C@@H]2CC[C@]2(C)C(=O)CC[C@@H]12`, for which the figures for the IC50 in data set [1] and in data set [2] were 0.0129 µM and 0.0757 µM, respectively.

In the case of `C[C@]12C=CC(=O)C=C1C[C@@H](CCCc1ccccc1)[C@@H]1[C@@H]2CC[C@]2(C)C(=O)CC[C@@H]12`, the IC50 in data set [1] was 0.00769 µM; in data set [2] it was 0.0637 µM. As to `C[C@]12C=CC(=O)C=C1C[C@@H](CCc1ccccc1)[C@@H]1[C@@H]2CC[C@]2(C)C(=O)CC[C@@H]12`, the IC50 in data set [1] is 0.0167 µM; in data set [2], 0.155 µM. Turning to `C[C@]12CCC(=O)C=C1C=C(CCc1ccc([N+](=O)[O-])cc1)[C@@H]1[C@@H]2CC[C@]2(C)C(=O)CC[C@@H]12`, the figures for the IC50 in data set [1] and in data set [2] were 4.5 µM and 0.0951 µM, respectively.

Turning to `C[C@]12CCC(=O)C=C1C=C(Cc1ccc([N+](=O)[O-])cc1)[C@@H]1[C@@H]2CC[C@]2(C)C(=O)CC[C@@H]12`, the values for the IC50 in data set [1] and in data set [2] were 0.929 µM and 0.094 µM, respectively. With `C[C@]12CCC(=O)C=C1C=C(CCc1ccc(N)cc1)[C@@H]1[C@@H]2CC[C@]2(C)C(=O)CC[C@@H]12`, the IC50 is 1.25 µM in data set [1] and 0.0879 µM in data set [2]. As a reminder, the pIC50 is the IC50 on a negative log10 scale, so that one unit is a factor of ten. For `C[C@]12CC[C@H](O)CC1=CC[C@@H]1[C@@H]2CC[C@]2(C)C(=O)[C@@H](n3ccnc3)C[C@@H]12`, the pIC50 in data set [3] was 5.481. Regarding `C[C@]12CCC(=O)C=C1C(=O)C[C@@H]1[C@@H]2CC[C@]2(C)C(=O)CC[C@@H]12`, the IC50 in data set [1] was 1.1 µM and 0.28 µM; in data set [2], 0.28 µM. As for `C[C@]12CCC(=O)C(O)=C1CC[C@@H]1[C@@H]2CC[C@]2(C)C(=O)CC[C@@H]12` [FORMESTANE], the deltaG in data set [4] worked out at 55.86 kJ/mol. The same compound had an IC50 in data set [2] of 0.562 µM.

Source of the values: ChEMBL document CHEMBL5241054, “Effective anti-aromatase therapy to battle against estrogen-mediated breast cancer: Comparative SAR/QSAR assessment on steroidal aromatase inhibitors” (Eur J Med Chem, 2020).
